Here are results for twelve compounds from EP3959200B1, “NEW TRIAZOLE AND TRIAZOLOTHIADIAZINE DERIVATIVES EXERTING CYTOTOXIC AND APOPTOTIC EFFECTS ON A549 CELLS THROUGH AKT INHIBITION” (Anadolu Universitesi, priority 2020, dated 2022).

≈ marks a conversion by molar mass, not a printed value.

For data set [1], the system named is A549 human lung adenocarcinoma cells. The data set can be described thus: MTT cytotoxicity assay. The class given is cell-based. Particulars: for IC50: Homo sapiens, A549, MTT, 24 hours, read-out: IC50 values A549 cell line; for SI values: SI= IC50 for NIH/3T3 cell line / IC50 for A549 cell line; for cytotoxic effects on A549 cell line: in the tested concentration range (0.12-500 µg/mL), result in words. The method, then: (§1) In order to be used from this stock, the concentrations ranging from 0.12 to 500 µg/mL (with the highest DMSO ratio of 0.1%) were prepared.
A549 human lung adenocarcinoma cells (ATCC® CCL-185™) were grown in RPMI 1640 medium supplemented with 10% fetal bovine serum, 1% penicillin/streptomycin, in an incubator with carbon dioxide, in a culture medium at 37°C at 95% relative humidity.
(§2) MTT protocol was applied to determine cell viability. […] At the end of the incubation period, 20 µL of MTT dye (5 mg/mL) was added into each well, and the cells were incubated for an additional 4 hours at 37°C. After this process, MTT dye was removed from the cells, 200 µL of DMSO was added to each well and left to incubate for 10 minutes. Color change was detected at 540 nm in the ELx808-IU Bio-Tek plate reader. Inhibition% values were determined for each concentration of compounds. Inhibitory concentration 50 (IC50) values of the compounds were calculated by drawing a dose-response curve with their concentrations against these values. All experiments were carried out in triplicate. The results were given as mean±standard deviation. Inhibition% = 100−[(ODtest compound−ODblank/ODsolvent control−ODblank)×100] [formula]
Selective index (SI) values were determined using the following formula. SI […] IC50 for NIH/3T3 cell line/IC50 for A549 cell line [formula]
(Formazan colour is commonly taken as a measure of viable cells.)

Data set [2] has as its system NIH/3T3 mouse embryonic fibroblast cells. The data set can be described thus: MTT cytotoxicity assay. The class given is cell-based. Particulars: for IC50: Mus musculus, NIH3T3, 24 hours, read-out: IC50 values NIH/3T3 cell line. Here is the method:
as §1
NIH/3T3 mouse embryonic fibroblast cells (ATCC® CRL-1658™) were grown in DMEM medium supplemented with 10% fetal bovine serum, 1% penicillin/streptomycin, in an incubator with carbon dioxide, in a culture medium at 37°C at 95% relative humidity.
as §2

Data set [3] relates to Akt. As to the kind of experiment: Akt activity assay (Akt colorimetric in cell ELISA). The note with it: for Inhibition % / IC50 value (Akt inhibitory effects): 24 hours. The format is cell-based, human. Here is the method: Briefly, the media was removed from the wells and 100 µL of 4% formaldehyde was added. The plate was incubated for 15 minutes in a fume hood. Formaldehyde was removed and the plate was washed twice with 1X […] solution (TBS) to 100 µL/well. 1X TBS was removed and 100 µL of 1X permeabilization buffer was added to each well and left at room temperature for 15 minutes. After removing the 1X permeabilization buffer, the wells were washed once with 100 µL of 1X TBS. 1X TBS was removed and 100 µL of the quenching solution was added to the wells and left at room temperature for 20 minutes. Then, this solution was removed. The plate was washed once with 1X TBS, 100 µL of blocking buffer was added to the wells and left at room temperature for 30 minutes. At the end of this period, the blocking buffer was removed and 50 µL of primary antibody was added to the wells. The plate was closed with a sealer and incubated overnight at 4°C. The primary antibody was removed and plate wells were washed three times with 100 µL of wash buffer. After removing the wash buffer, 100 µL of diluted horseradish peroxidase (HRP) conjugate was added to the wells. It was incubated for 30 minutes at room temperature. After removing this conjugate, 100 µL of 3,3',5,5'-tetramethylbenzidine (TMB) stop solution was added and absorbance was measured at 450 nm for 30 minutes. The experiment was carried out in triplicate. The values of the blank wells were subtracted from the values of the untreated control and treated cells. The Akt activity% was determined as the relative absorbance of treated versus untreated control cells.

Data set [4] concerns A549 cells. As to the kind of experiment: FITC Annexin V/PI apoptosis detection by flow cytometry. Particulars: for apoptosis induction: flow cytometry, result in words. The format is cell-based, human. The method, then: The cells incubated with the compounds were centrifuged at 400 × g for 5 minutes in labeled tubes and washed twice with 1xPBS. Then, the cells were suspended in 1×Annexin-V binding solution at 1×10^6 cells/mL and 100 µL of this cell solution was taken and transferred to tubes. The cells were treated with 5 µL Annexin V FITC and 5 µL of propidium iodide (PI) dyes. Then, the cells were kept at room temperature in the dark for 15 minutes to allow the dye to bind. 400 µL of 1×Annexin-V binding cell solution was transferred to flow cytometry tubes and the amount of early and late apoptotic cells was determined relative to the positive control using the BD FACSAria flow cytometer FACSDiva version 6.1.1 software.
A general note: A flow cytometer gives signals particle by particle.

For `COc1ccc(C2=Nn3c(CCc4cccnc4)nnc3SC2)cc1` [Compound 2i, G-(4-Methoxyphenyl)-3-(2-(pyridine-3-yl)ethyl)-7H-[1,2,4]triazolo[3,4-b][1,3,4] thiadiazine], the values for the IC50 in data set [1] and in data set [2] were 13.7 ± 2.52 µg/mL (≈ 38.9 µM) and < 3.9 µg/mL, respectively. In data set [2] (24 hours), the “IC50 values NIH/3T3 cell line” value was <3.90 µg/mL.

As for `CCn1c(-c2nonc2N)nc2c(C#CC(C)(C)O)ncc(OC[C@H]3CCCNC3)c21` [GSK690693, reference compound], the IC50 in data set [1] was determined as 6.15 ± 0.49 µg/mL (≈ 14.5 µM). Besides, the values for the Inhibition % in data set [3] (1.50 µg/mL), in data set [3] (3.075 µg/mL) and in data set [3] (6.15 µg/mL) were 34.46±1.47%, 49.88±5.55% and 100%, respectively. In addition, the “IC50 value (Akt inhibitory effects)” value in data set [3] was determined as 2.93 ± 0.23 µg/mL (≈ 6.89 µM).

For `Clc1ccc(C2=Nn3c(CCc4cccnc4)nnc3SC2)cc1` [Compound 2d, 6-(4-chlorophenyl)-3-(2-(pyridine-3-yl)ethyl)-7H-[1,2,4]triazolo[3,4-b][1,3,4]thiadiazine], in data set [1], the IC50 turned out to be 15.8 ± 0.35 µg/mL (≈ 44.3 µM) and the SI values is given as >31.75. This compound also yielded an Inhibition % in data set [3] (3.94 µg/mL) of 80.33±19.71%. In addition, the Inhibition % in data set [3] (7.88 µg/mL) was 99.07±1.86%. This compound showed an Inhibition % in data set [3] (15.75 µg/mL) of 90.41±7.17%. In addition, the “IC50 value (Akt inhibitory effects)” value in data set [3] was found to be 0.80 ± 0.10 µg/mL (≈ 2.25 µM). In addition, the IC50 in data set [2] was > 500 µg/mL. In addition, in data set [4] (at IC50 concentrations), the “Early apoptotic cells %” value turned out to be 2.4%, the “Late apoptotic cells %” value is 3.8%, the Necrosis % came to 1.3% and the Viable cells% is given as 92.5%. The apoptosis induction result in data set [4] is listed as “induce apoptosis”.

Regarding `Nn1c(CCc2cccnc2)nnc1SCC(=O)Nc1nc2ccc(Cl)cc2s1` [Compound 3d, 2-((4-Amino-5-(2-(pyridine-3-yl)ethyl)-4H-1,2,4-triazole-3-yl)thio)-N-(6-chlorobenzothiazole-2-yl)acetamide], in data set [1], the IC50 came out at 0.34 ± 0.02 µg/mL (≈ 0.762 µM) and the SI values is 14.41. In data set [3] (0.98 µg/mL), this compound displayed an Inhibition % of 80.23±7.70%. For the same compound, the Inhibition % in data set [3] (1.95 µg/mL) is recorded as 76.94±10.75%. The same compound showed an Inhibition % in data set [3] (3.90 µg/mL) of 100.00%. Also, the “IC50 value (Akt inhibitory effects)” value in data set [3] is 0.19 ± 0.05 µg/mL (≈ 0.426 µM). Also, in data set [2], the IC50 came to 4.9 ± 0.36 µg/mL (≈ 11 µM). For the same compound, in data set [4] (at IC50 concentrations), the “Early apoptotic cells %” value was found to be 1.8%, the “Late apoptotic cells %” value is recorded as 6.3%, the Necrosis % is given as 4.8% and the Viable cells% was 87.2%. In data set [4] (at IC50 concentrations, early plus late apoptotic cells), the apoptotic activity turned out to be 8.1%. For the same compound, the apoptosis induction result in data set [4] is “induce apoptosis”.

Turning to `Nn1c(CCc2cccnc2)nnc1SCC(=O)Nc1nc2ccccc2s1` [Compound 3b, 2-((4-Amino-5-(2-(pyridine-3-yl)ethyl)-4H-1,2,4-triazole-3-yl)thio)-N-(benzothiazole-2-yl)acetamide], in data set [1], the IC50 worked out at 0.68 ± 0.18 µg/mL (≈ 1.65 µM) and the SI values was 34.31. In data set [3] (0.98 µg/mL), this compound gave an Inhibition % of 14.58±4.29%. This compound yielded an Inhibition % in data set [3] (3.90 µg/mL) of 72.89±5.45%. Besides, the “IC50 value (Akt inhibitory effects)” value in data set [3] is 2.23 ± 0.12 µg/mL (≈ 5.42 µM). For the same compound, the IC50 in data set [2] worked out at 23.3 ± 6.11 µg/mL (≈ 56.7 µM). Moreover, in data set [4] (at IC50 concentrations), the “Early apoptotic cells %” value was 0.7%, the “Late apoptotic cells %” value came out at 3.0%, the Necrosis % stood at 3.2% and the Viable cells% was found to be 93.1%.

Regarding `COc1ccc2nc(NC(=O)CSc3nnc(CCc4cccnc4)n3N)sc2c1` [Compound 3g, 2-((4-Amino-5-(2-(pyridine-3-yl)ethyl)-4H-1,2,4-triazole-3-yl)thio)-N-(6-methoxybenzothiazole-2-yl)acetamide], the IC50 in data set [1] worked out at 0.48 ± 0.03 µg/mL (≈ 1.09 µM). The Inhibition % in data set [3] (1.95 µg/mL) was determined as 26.42±4.59%. The compound also had an Inhibition % in data set [3] (3.90 µg/mL) of 88.87±5.31%. In addition, in data set [3], the “IC50 value (Akt inhibitory effects)” value turned out to be 2.60 ± 0.10 µg/mL (≈ 5.89 µM). Also, the IC50 in data set [2] is > 500 µg/mL. Moreover, in data set [4] (at IC50 concentrations), the “Early apoptotic cells %” value is listed as 0.9%, the “Late apoptotic cells %” value is reported as 5.5%, the Necrosis % is given as 9.1% and the Viable cells% is 84.5%. Further, the apoptosis induction entry in data set [4] is “induce apoptosis”.

Regarding `Nn1c(CCc2cccnc2)nnc1SCC(=O)Nc1nccs1` [Compound 3a, 2-((4-Amino-5-(2-(pyridine-3-yl)ethyl)-4H-1,2,4-triazole-3-yl)thio)-N-(thiazole-2-yl)acetamide], in data set [1], the IC50 came to 0.48 ± 0.04 µg/mL (≈ 1.33 µM) and the SI values was found to be 430.54. Besides, the Inhibition % in data set [3] (0.48 µg/mL) amounted to 54.76±5.33%. The Akt inhibitory effects result in data set [3] (result in words) is given as “did not show significant Akt inhibitory effects”. In data set [2], the IC50 was 207 ± 11.6 µg/mL (≈ 572 µM). In data set [4] (at IC50 concentrations), the “Early apoptotic cells %” value came out at 0.4%, the “Late apoptotic cells %” value was found to be 3.1%, the Necrosis % is given as 5.6% and the Viable cells% came to 91.0%.

Take `Brc1ccc(C2=Nn3c(CCc4cccnc4)nnc3SC2)cc1` [Compound 2e, G-(4-Bromophenyl)-3-(2-(pyridine-3-yl)ethyl)-7H-[1,2,4]triazolo[3,4-b][1,3,4]thiadiazine]: in data set [1], the IC50 is > 500 µg/mL and the “cytotoxic effects on A549 cell line” value was “did not show cytotoxic effects”. Further, in data set [2], the IC50 was > 500 µg/mL.

Regarding `Cc1ccc(C2=Nn3c(CCc4cccnc4)nnc3SC2)cc1` [Compound 2h, 3-(2-(Pyridine-3-yl)ethyl)-6-(p-tolyl)-7H-[1,2,4]triazolo[3,4-b][1,3,4]thiadiazine], the results for the IC50 in data set [1] and in data set [2] were 41.3 ± 0.58 µg/mL (≈ 123 µM) and > 500 µg/mL, respectively. For the same compound, in data set [1], the SI values was >12.10.

Take `FC(F)(F)c1ccc(C2=Nn3c(CCc4cccnc4)nnc3SC2)cc1` [Compound 2g, 3-(2-(Pyridine-3-yl)ethyl)-6-(4-(trifluoromethyl)phenyl)-7H-[1,2,4]triazolo[3,4-b][1,3,4]thiadiazine]: the IC50 in data set [1] and in data set [2] was > 500 µg/mL in each case. Besides, the “cytotoxic effects on A549 cell line” value in data set [1] is reported as “did not show cytotoxic effects”.

Regarding `N#Cc1ccc(C2=Nn3c(CCc4cccnc4)nnc3SC2)cc1` [Compound 2f, G-(4-Cyanophenyl)-3-(2-(pyridine-3-yl)ethyl)-7H-[1,2,4]triazolo[3,4-b][1,3,4]thiadiazine], in data set [1], the IC50 was > 500 µg/mL and the “cytotoxic effects on A549 cell line” value was “did not show cytotoxic effects”. For the same compound, the IC50 in data set [2] was > 500 µg/mL.

For `Nn1c(CCc2cccnc2)nnc1SCC(=O)Nc1nc2ccc(Br)cc2s1` [Compound 3e, 2-((4-Amino-5-(2-(pyridine-3-yl)ethyl)-4H-1,2,4-triazole-3-yl)thio)-N-(6-bromobenzothiazole-2-yl)acetamide], in data set [1], the IC50 was 362 ± 12.6 µg/mL (≈ 737 µM) and the SI values was >1.38. The IC50 in data set [2] was > 500 µg/mL.
